Substitutions are numbered along the chain they refer to. Read-outs that look alike come from different tables or passages of the source.
How the values were obtained:
Assay type in all cases: cell-based
LNCaP FGC cells = assay: Inhibition of proliferation of LNCaP cells (WST-8); details: Homo sapiens, LNCaP, 96 h
Method: The cells were cultured in a cell culture incubator with 5% CO2 at 37° C. overnight. […] On the sixth day, 96 well plates were taken out, and 20 μL of WST-8 (Beytime, C0040) reagent was added to each well.

AR protein [1] = target: T1, AR protein (Homo sapiens, UniProt P10275, T878A); assay: Degradation of AR protein in LNCaP cells (Western blot); details: for inhibition at 0.01 µM: read-out: Degradation rates of the AR protein in LNCaP cells, 10 nM (%); for inhibition at 0.1 µM: read-out: Degradation rates of the AR protein in LNCaP cells, 100 nM (%)
T1 construct: degradation activity of the compounds disclosed in the present disclosure on AR protein in LNCaP cells; host or cells: LNCaP FGC
T1 sequence (P10275 1-920 T878A): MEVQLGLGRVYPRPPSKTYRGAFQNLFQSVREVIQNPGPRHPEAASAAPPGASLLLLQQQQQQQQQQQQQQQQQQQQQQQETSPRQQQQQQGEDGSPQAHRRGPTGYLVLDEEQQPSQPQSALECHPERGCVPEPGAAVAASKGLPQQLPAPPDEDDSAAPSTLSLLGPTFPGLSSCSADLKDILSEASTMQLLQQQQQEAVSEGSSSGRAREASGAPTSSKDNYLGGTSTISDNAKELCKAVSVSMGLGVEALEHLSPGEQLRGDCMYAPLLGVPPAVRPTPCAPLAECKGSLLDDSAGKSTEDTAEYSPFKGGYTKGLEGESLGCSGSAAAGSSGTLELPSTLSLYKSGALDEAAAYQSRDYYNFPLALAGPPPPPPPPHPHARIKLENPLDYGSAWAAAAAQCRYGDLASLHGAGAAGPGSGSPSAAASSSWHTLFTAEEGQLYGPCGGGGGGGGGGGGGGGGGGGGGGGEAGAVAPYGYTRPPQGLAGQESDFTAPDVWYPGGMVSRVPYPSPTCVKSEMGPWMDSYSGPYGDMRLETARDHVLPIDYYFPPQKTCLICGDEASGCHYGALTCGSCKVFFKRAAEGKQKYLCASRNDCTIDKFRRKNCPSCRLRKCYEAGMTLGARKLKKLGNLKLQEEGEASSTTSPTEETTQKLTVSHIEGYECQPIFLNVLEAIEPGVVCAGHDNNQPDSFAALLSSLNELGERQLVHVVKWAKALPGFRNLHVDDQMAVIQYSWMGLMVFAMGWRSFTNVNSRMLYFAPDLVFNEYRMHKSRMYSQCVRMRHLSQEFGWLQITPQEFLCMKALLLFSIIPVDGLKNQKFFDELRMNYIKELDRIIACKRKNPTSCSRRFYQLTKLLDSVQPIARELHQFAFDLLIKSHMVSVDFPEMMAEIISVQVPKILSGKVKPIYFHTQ
How it was run: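 Percent AR degradation was derived from GAPDH-normalised Western blot band intensities (infrared detection) in LNCaP lysates.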

VCaP cells = assay: Inhibition of proliferation of VCaP cells (WST-8); details: Homo sapiens, read-out: IC50 for inhibiting the proliferation of VCaP cells
How it was run: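 Proliferation was read by WST-8 on day nine. Cells were VCaP FGC, seeded at 15000 cells per well in 10% FBS DMEM and kept at 37° C with 5% CO2.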

AR protein [2] = target: T2, AR protein (Homo sapiens, UniProt P10275); assay: Degradation of AR protein in VCaP cells (Western blot); details: 8 hours; for inhibition at 0.01 µM: compound at 10 nM, read-out: Degradation rate of the AR protein in VCaP cells, 10 nM (%); for inhibition at 0.1 µM: compound at 100 nM, read-out: Degradation rate of the AR protein in VCaP cells, 100 nM (%)
T2 construct: degradation activity of the compounds disclosed in the present disclosure on AR protein in VCaP cells; host or cells: VCaP
T2 sequence (P10275 1-920): T1 sequence (P10275 1-920 T878A) with A878T
How it was run: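 Western blot readout: AR band grayscale normalised to GAPDH, used to derive degradation rate. Lysates came from VCaP cells exposed to compound for 8 h, with solvent controls run in parallel.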

[3] = LNCaP FGC cells, 96 hours, WST-8 absorbance at 450 nm, read-out: IC50 for inhibiting the proliferation of LNCaP cells
[4] = LNCaP cells, compound 10 nM, 8 hours, Western blot grayscale, GAPDH internal reference
[5] = LNCaP cells, compound 100 nM, 8 hours, Western blot grayscale, GAPDH internal reference
[6] = VCaP cells, 168 hours, WST-8 absorbance at 450 nm

SMILES | IC50 (LNCaP FGC cells; [3]) [nM] | inhibition at 0.01 µM (AR protein [1]; [4]) [%] | inhibition at 0.1 µM (AR protein [1]; [5]) [%] | IC50 (VCaP cells; [6]) [nM] | inhibition at 0.01 µM (AR protein [2]) [%] | inhibition at 0.1 µM (AR protein [2]) [%] | IC50 (LNCaP FGC cells; read-out: IC50 for inhibiting the proliferation of LNCaP cells, LNCaP FGC cells, 96 hours, WST-8 absorbance at 450 nm) [nM] | inhibition at 0.01 µM (AR protein [1]; LNCaP, 8 h) [%] | inhibition at 0.1 µM (AR protein [1]; LNCaP, 8 h) [%] | IC50 (VCaP cells; VCaP, 168 h) [nM]
N#Cc1ccc(O[C@H]2CC[C@H](NC(=O)c3ccc(N4CC(N5CCC6(CC5)COc5c6ccc6c5C(=O)N(C5CCC(=O)NC5=O)C6=O)C4)nn3)CC2)cc1Cl (stereo partly drawn) [Compound 142] | > 90000 | 29 | 52 | 15100 | 26 | 74 |  |  |  | 
COc1cc(O[C@H]2C(C)(C)[C@H](NC(=O)c3ccc(N4CCC(F)(CN5CCC6(CC5)COc5c6ccc6c5C(=O)N(C5CCC(=O)NC5=O)C6=O)CC4)cc3)C2(C)C)ccc1C#N (stereo partly drawn) [Compound 275] | 240 | 30 | 54 | 20 | 7 | 51 |  |  |  | 
N#Cc1ccc(O[C@H]2CC[C@H](NC(=O)c3ccc(N4CC(N5CCC6(CC5)COc5cc7c(cc56)C(=O)N(C5CCC(=O)NC5=O)C7=O)C4)nn3)CC2)cc1Cl (stereo partly drawn) [Compound 49] |  |  |  |  | 24 | 61 | 2810 | 24 | 36 | 4000
C[C@H]1CN(c2ccc(C(=O)N[C@H]3CC[C@H](Oc4ccc(C#N)c(Cl)c4)CC3)nn2)C[C@@H]1CN1CCC2(CC1)COc1c2ccc2c1CN(C1CCC(=O)NC1=O)C2=O (stereo partly drawn) [Compound 212] | 320 | 79 | 70 | 1 | 60 | 82 |  |  |  | 
N#Cc1ccc(O[C@H]2CC[C@H](NC(=O)c3ccc(N4CCC(F)(CN5CC6(CCc7ccc8c(c7O6)C(=O)N(C6CCC(=O)NC6=O)C8)C5)CC4)nn3)CC2)cc1Cl (stereo partly drawn) [Compound 139] | 52300 | 42 | 11 | > 90000 | -16 | -31 |  |  |  | 
COc1cc(O[C@H]2C(C)(C)[C@H](NC(=O)c3ccc(N4CCC(CN5CCC6(CCc7cc8c(cc7O6)C(=O)N(C6CCC(=O)NC6=O)C8=O)CC5)CC4)cc3)C2(C)C)ccc1C#N (stereo partly drawn) [Compound 276] | 8810 | 55 | 67 | 35 | -11 | 59 |  |  |  | 
N#Cc1ccc(O[C@H]2CC[C@H](NC(=O)c3ccc(N4CCC(O)(CN5CCC6(CC5)COc5c6ccc6c5C(=O)N(C5CCC(=O)NC5=O)C6=O)CC4)nn3)CC2)cc1Cl (stereo partly drawn) [Compound 213] | 1320 | 47 | 67 | 19 | 32 | 75 |  |  |  | 
CC1(CN2CCC3(CC2)COc2c3ccc3c2CN(C2CCC(=O)NC2=O)C3=O)CCN(c2ccc(C(=O)N[C@H]3CC[C@H](Oc4ccc(C#N)c(Cl)c4)CC3)nc2)CC1 (stereo partly drawn) [Compound 259] | 73 | -16 | 44 | 1.2 | 33 | 78 |  |  |  | 
CC1(CN2CCC3(CCc4cc5c(cc4O3)C(=O)N(C3CCC(=O)NC3=O)C5=O)CC2)CCN(c2ccc(C(=O)N[C@H]3CC[C@H](Oc4ccc(C#N)c(Cl)c4)CC3)nn2)CC1 (stereo partly drawn) [Compound 17] | 800 | 35 | 65 | 580 | 39 | 80 |  |  |  | 
COc1cc(O[C@H]2C(C)(C)[C@H](NC(=O)c3ccc(N4CCC(CN5CC6(CCc7cc8c(cc7O6)C(=O)N(C6CCC(=O)NC6=O)C8=O)C5)CC4)cc3)C2(C)C)ccc1C#N (stereo partly drawn) [Compound 277] | 10700 | 16 | 60 | 73 | 7 | 54 |  |  |  | 

Further lines, with some results ahead:

IC50 (LNCaP FGC cells; [3]) [nM] | inhibition at 0.01 µM (AR protein [1]; [4]) [%] | inhibition at 0.1 µM (AR protein [1]; [5]) [%] | IC50 (VCaP cells; [6]) [nM] | inhibition at 0.01 µM (AR protein [2]) [%] | inhibition at 0.1 µM (AR protein [2]) [%] | SMILES | IC50 (LNCaP FGC cells; read-out: IC50 for inhibiting the proliferation of LNCaP cells, LNCaP FGC cells, 96 hours, WST-8 absorbance at 450 nm) [nM] | inhibition at 0.01 µM (AR protein [1]; LNCaP, 8 h) [%] | inhibition at 0.1 µM (AR protein [1]; LNCaP, 8 h) [%] | IC50 (VCaP cells; VCaP, 168 h) [nM]
800 | 44 | 72 | 160 | 62 | 73 | N#Cc1ccc(O[C@H]2CC[C@H](NC(=O)c3ccc(N4CCC5(CCC(N6CCC7(CC6)COc6cc8c(cc6C7)C(=O)N(C6CCC(=O)NC6=O)C8=O)CC5)CC4)nn3)CC2)cc1Cl (stereo partly drawn) [Compound 64] |  |  |  | 
3710 | 31 | 28 | 5120 | 11 | 63 | COc1cc(O[C@H]2CC[C@H](NC(=O)c3ccc(N4CCC(CN5CC6(CCc7cc8c(cc7O6)C(=O)N(C6CCC(=O)NC6=O)C8=O)C5)(OC)CC4)nn3)CC2)ccc1C#N (stereo partly drawn) [Compound 231] |  |  |  | 
1140 | 85 | 84 | 2.5 | 79 | 83 | N#Cc1ccc(O[C@H]2CC[C@H](NC(=O)c3ccc(N4CCC(CN5CCC6(CCc7cc8c(cc7O6)C(=O)N(C6CCC(=O)NC6=O)C8)CC5)CC4)nn3)CC2)cc1Cl (stereo partly drawn) [Compound 44] |  |  |  | 
2140 | 20 | 56 | 4 | -11 | 60 | COc1cc(O[C@H]2C(C)(C)[C@H](NC(=O)c3ccc(N4CCC(C)(CN5CCC6(CCc7cc8c(cc7O6)CN(C6CCC(=O)NC6=O)C8=O)CC5)CC4)cc3)C2(C)C)ccc1C#N (stereo partly drawn) [Compound 281] |  |  |  | 
1250 | 66 | 50 | 3910 | 21 | 56 | CC1(CN2CC3(CCc4cc5c(cc4O3)C(=O)N(C3CCC(=O)NC3=O)C5=O)C2)CCN(c2ccc(C(=O)N[C@H]3CC[C@H](Oc4ccc(C#N)c(Cl)c4)CC3)nn2)CC1 (stereo partly drawn) [Compound 2] |  |  |  | 

Source: patent publication US20260234157A1, “COMPOUND AND METHOD FOR TARGETED DEGRADATION OF ANDROGEN RECEPTOR” (Gan & Lee Pharmaceuticals Co., Ltd., priority 2023, published 2026)
